# Data published in patent US12662688B2, “Site-selective deuteration of amino acids through dual protein catalysis” (Wisconsin Alumni Research Foundation, priority 2022, dated 2026).
# B1: DsaD (Streptomyces scopuliridis) (protein)
# chain: MGSSHHHHHHSSGLVPRGSHMASMTGGQQMGRGSEFMHIVTTPVARPLTAQERTERCAAPAFGTAFTEHMVSARWNPEQGWHDAELVPYGPLLLDPATVGLHYGQVVFEGLKAFRSHTGEVAVFRPDAHAERMRASARRLMMPEPPEELFLAAVDALVAQDQEWIPDDPGMSLYLRPILFASERTLALRPAREYRFLLVAFITEGYFGPAQRPVRVWVTDEYSRAAAGGTGAAKCAGNYAGSLLAQEEAQRKGCDQVVWLDPVERNWVEEMGGMNLFFVYEAGGSARLVTPPLTGSLLPGVTRDALLRLAPTLGVPVSEAPLSLEQWRADCASGAITEVFACGTAARISPVNEVSTKDGSWTIGAGAPAEGGVAAGEVTGRLSAALFGIQRGELPDSHSWMRPVSPARQSAIT
# How the values were obtained:
# DsaD/E system = assay: Two-step Cα/Cβ deuteration then Cα deuterium washout with DsaD in H2O; assay type: biochemical, Streptomyces scopuliridis; details: lower substrate loading (10 mM), after Cα washout
# Method: (§1) General procedure for milligram-scale biocatalytic deuteration: A 4-dram scintillation vial was charged with amino acid (10-20 mM final concentration), Na3PO4 buffer pD 8.4 (50 mM final concentration), PLP (100 μM final concentration), DsaD clarified cell lysate (2.5% v/v), DsaE clarified cell lysate (if applicable) (2.5% v/v), and D2O (or dH2O) to the appropriate final volume. The reaction vessel was placed in an incubator at 37° C. for 16 h. Reaction progress was monitored by UPLC-MS. After reaction completion, the reaction mixture was quenched with an equivalent volume of acetone and centrifuged (4,000 rpm, 10 min) to remove denatured protein. Supernatant was transferred to a clean beaker, the decanted supernatant was concentrated to remove acetone by rotary evaporation and loaded onto a preparative reverse-phase C18 column pre-equilibrated with water. Purification was performed via gradient elution on an Isolera One Flash Purification system (Biotage). Fractions bearing product (confirmed by UPLC-MS sampling of fraction tubes) were pooled and dried by rotary evaporation. The product was then resuspended in a minimal quantity of water, transferred to a pre-weighed 20 mL vial, frozen, and lyophilized.
# An initial reaction was performed with DsaD and DsaE to produce Cα,Cβ-deuterated L-Leu-2,3,3-d3 (25). Following reaction quenching with acetone, centrifugation to remove protein products, and removal of acetone and D2O via rotary evaporation, the dry crude product mixture was subjected to standard reaction conditions with DsaD in water. This reaction led to washout of the Cα deuterium, providing exclusively Cβ-deuterated L-Leu-3,3-d2 (44) with high levels of deuterium incorporation at Cβ (FIG. 5, 86% D incorporation and 98% ee). The site of H/D exchange in these reactions is dictated by the presence or absence of DsaE from the reaction conditions, enabling control of amino acid deuteration patterns.
# We performed Cα/Cβ deuteration on a panel of amino acids, quenched the reactions and resubjected the crude product to Cα deuterium washout with DsaD in H2O. […]
# DsaD/E complex [1] = assay: Preparative-scale Cα/Cβ-deuteration with DsaD and DsaE clarified lysates in D2O; assay type: biochemical, Streptomyces scopuliridis
# Method: (§2) FIG. 5. ^1H NMR analysis of site-selective deuteration of L-Leu. Reaction conditions: 20 mM L-Leu 2.5% v/v DsaD clarified lysate, 2.5% v/v DsaE clarified lysate (when needed), 50 mM sodium phosphate (pD 8.4), 0.1 mM PLP, D2O (99.9% D).
# (§3) FIG. 8. Preparative-scale and site-selective deuteration of amino acids. Conditions: 10-20 mM amino acid, 2.5% v/v DsaD clarified lysate, 2.5% v/v DsaE clarified lysate, 50 mM sodium phosphate (pD 8.4), 0.1 mM PLP, D2O (99.9%).
# as §1
# DsaD/E complex [2] = assay: Analytical-scale Cα/Cβ H/D exchange with purified DsaD and DsaE; assay type: biochemical, Streptomyces scopuliridis; details: 10 mM substrate, 5 μM DsaD, 50 μM DsaE (10:1), 37° C., 8 h
# Method: FIGS. 3A-3C. Optimization of H/D exchange reactions and evaluation of the substrate scope. FIG. 3A. Optimization of Cβ-deuteration by increasing equivalents of partner protein DsaE. FIG. 3B. Evaluation of substrate scope of dual-protein-catalyzed Cα/Cβ deuteration under optimized conditions. FIG. 3C. UV-visible spectroscopy used to evaluate non-native substrate binding to DsaD. Reaction conditions: 10 mM amino acid substrate, 50 μM DsaE, 5 μM DsaD (10:1), 50 mM sodium phosphate (pD 8.4), 0.1 mM PLP, D2O, 37° C., 8 h. Reactions performed in duplicate, and percentage isotope incorporation is reported as the average of the replicates.
# General procedure analytical scale deuteration reactions: α/β deuteration reactions were performed as follows. A 1 mL Eppendorf tube was charged with amino acid (10-20 mM final concentration), Na3PO4 buffer pD 8.4 (50 mM final concentration), PLP (100 μM final concentration), purified enzymes or appropriate lysate and D2O and to the appropriate final volume (typically 50 μL). Reactions were carried out at 37° C. for 8 h and quenched by the addition of 3 volumes of acetonitrile. Precipitated biomolecules were pelleted by centrifugation (16,000×g, 10 min) and samples were processed as described below.
# (§4) Marfey's derivatization of analytical scale reactions: Derivatization of the resulting analytical scale product mixture (to increase overall signal and enable reverse phase chromatographic analysis) was achieved by treatment with Marfey's reagent^2 (1-fluoro-2-4-dinitrophenyl-5-L-alanine amide, L-FDAA) using the following protocol. 25 μL of quenched reaction mix (final amine concentration, 1.6 mM) was added to an Eppendorf tube with 50 μL of 15 mM NaHCO3 (final concentration, 5 mM) and 75 μL of 5 mM L-FDAA (final concentration, 2.5 mM). Derivatization reactions were carried out for 10-12 h before quenching with 150 μL of 60 mM HCl dissolved in acetonitrile. Final reaction analysis was carried out by UPLC-DAD-MS and quantitation as described below.
# (§5) Quantitation of deuteration in analytical scale reactions: Deuteration reactions were analyzed by UPLC-DAD-MS with single ion recording (SIR) channels set to record a spectrum with the appropriate isotopic mass in positive mode. The area under the curve of recorded SIR peaks was obtained and normalized to account for natural isotopic abundance distributions (e.g. ^13C, ^15N, ^2H, ^34S, etc). Percent deuterium incorporation was calculated by the formula below. These measurements were carried out in an iterative fashion to measure Cα deuteration and Cβ deuteration.
# DsaD [3] = molecular target: T1, DsaD (Streptomyces scopuliridis, UniProt A0A0D5CCB2); assay: Preparative-scale Cα-deuteration with DsaD clarified lysate in D2O; assay type: biochemical; details: DsaD lysate only
# Method: as §2, §3
# as §1, with “Supernatant was transferred to a clean beaker, the decanted supernatant was concentrated to remove acetone by rotary evaporation and loaded onto a preparative reverse-phase C18 column pre-equilibrated with water. Purification was performed via gradient elution on an Isolera One Flash Purification system (Biotage). Fractions bearing product (confirmed by UPLC-MS sampling of fraction tubes) were pooled and dried by rotary evaporation.” left out
# DsaD/E complex [4] = assay: Analytical-scale Cα/Cβ H/D exchange with purified DsaD and DsaE; assay type: biochemical, Streptomyces scopuliridis; details: 1 mM Ile, 0.05 mol % DsaD and DsaE (1:1), D2O, 37° C., 8 h
# DsaD [5] = molecular target: T1, DsaD; assay: H/D exchange of L-Ile with DsaD alone (steady-state kinetics); assay type: biochemical
# Method: (§6) FIGS. 2A-2E. Steady-state kinetic analysis of H/D exchange by the Ile epimerization system. FIG. 2A. Steady-state kinetic analysis describing Cβ-deuteration^a of L-Ile under varied equivalents of partner enzyme DsaE. FIG. 2B. Steady-state kinetic analysis of Cβ-deuteration rates^a at a constant 1 mM L-Ile, measured against increasing equivalents of DsaE. FIG. 2C. Steady-state kinetic analysis of Cα-deuteration^a of L-Ile in the presence and absence of partner protein DsaE. FIG. 2D. Proposed mechanism of selective deuterium incorporation at Cα and Cβ catalyzed by dual protein catalysis. FIG. 2E. UV-visible spectrum of DsaD in the absence and presence of L-Ile.^a Measurement of initial rates was performed in duplicate at 24° C. […] Following quench with MeCN, crude reaction products were subjected to functionalization with Marfey's reagent (L-FDAA) to enable analysis by reverse-phase chromatography and quantification of isotope incorporation by mass spectrometry.
# (§7) Kinetic analysis of biocatalytic L-Ile deuteration: Initial rates of α- or β-deuteration were obtained by means of end-point assay using the quantitation protocol for analytical scale reactions as described above. […] Michaelis constants (KM) for α- and β-deuteration of L-Ile were determined using the concentration range of 0.1-10 mM L-Ile using 3 μM DsaD. […]
# DsaD [6] = molecular target: T1, DsaD; assay: UV-vis spectroscopy of amino acid binding to DsaD; details: 20 μM DsaD, pH 8.0, 25° C.
# Method: UV-Vis Spectroscopy: Data were collected between 600 and 300 nm on a UV-2600 Shimadzu spectrophotometer (Shimadzu, Kyoto, Japan) with a semi-micro quartz cuvette (Starna Cells, Atascadero, California, USA) at 25° C. DsaD stock solutions were diluted to 20 μM in 50 mM sodium phosphate pH 8.0. For observation of substrate binding, amino acids were added at concentrations ranging from 2.5-10 mM. Spectra from 600-300 nm were collected after a 2-minute incubation period. Amino acid stocks were prepared as 100 mM stocks in deionized water.
# DsaD/DsaE complex = DsaD/DsaE complex (Streptomyces scopuliridis, UniProt A0A0D5CCB2); assay: Steady-state kinetic analysis of H/D exchange of L-Ile by DsaD with partner protein DsaE; assay type: biochemical
# Chain of DsaD/DsaE complex (A0A0D5CBB6 entry or part of it, one chain of several): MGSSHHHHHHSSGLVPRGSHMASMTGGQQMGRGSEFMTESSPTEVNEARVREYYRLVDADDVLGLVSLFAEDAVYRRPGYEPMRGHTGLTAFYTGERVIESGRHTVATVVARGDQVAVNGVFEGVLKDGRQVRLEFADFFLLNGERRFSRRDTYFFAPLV
# Method: FIGS. 2A-2E. Steady-state kinetic analysis of H/D exchange by the Ile epimerization system. FIG. 2A. Steady-state kinetic analysis describing Cβ-deuteration^a of L-Ile under varied equivalents of partner enzyme DsaE. FIG. 2B. Steady-state kinetic analysis of Cβ-deuteration rates^a at a constant 1 mM L-Ile, measured against increasing equivalents of DsaE. FIG. 2C. Steady-state kinetic analysis of Cα-deuteration^a of L-Ile in the presence and absence of partner protein DsaE. FIG. 2D. Proposed mechanism of selective deuterium incorporation at Cα and Cβ catalyzed by dual protein catalysis. FIG. 2E. UV-visible spectrum of DsaD in the absence and presence of L-Ile.^a Measurement of initial rates was performed in duplicate at 24° C. Conditions: 0.1-10 mM L-Ile, 3 μM DsaD, 50 mM sodium phosphate (pD 8.4), and 0.1 mM PLP in D2O (99.9%). Proteins were exchanged into a 50 mM sodium phosphate-D2O (pD 8.4) solution prior to reaction initiation to minimize proton contamination (<1% H2O). Following quench with MeCN, crude reaction products were subjected to functionalization with Marfey's reagent (L-FDAA) to enable analysis by reverse-phase chromatography and quantification of isotope incorporation by mass spectrometry.
# as §4, §5
# Kinetic analysis of biocatalytic L-Ile deuteration: Initial rates of α- or β-deuteration were obtained by means of end-point assay using the quantitation protocol for analytical scale reactions as described above. All reagents were prepared in D2O (99.9% D) and protein stocks were dialyzed (3 exchanges over 3 h at 4° C.) into 50 mM sodium phosphate buffer dissolved in D2O (pD 8.4) using a slide-a-lyzer device with a 3,000 Da cutoff. Reactions were performed at 25° C. in 1 mL Eppendorf tubes. Michaelis constants (KM) for α- and β-deuteration of L-Ile were determined using the concentration range of 0.1-10 mM L-Ile using 3 μM DsaD. Partner protein (DsaE) concentrations were consistent within each experiment and separate experiments were performed using varied equivalents of partner protein (0-50 equiv). Initial velocities were measures in duplicate or triplicate for at least 6 different substrate concentrations for each set of conditions tested. Measurements of the impact of partner protein (DsaE) concentration on the initial rate of β-deuteration were carried out using 1 mM L-Ile, 3 μM DsaD and varying DsaE concentrations between 3 μM-600 μM (1-200 equiv). Under the minimal proton contamination conditions of this assay (99.9% D2O), Cα and Cβ deuteration are assumed to have occurred without back transfer to proton. The data were fit using the Michaelis-Menten equation implemented in Prism.
# [7] = substrate: CC[C@H](C)[C@H](N)C(=O)O; assay: H/D exchange of L-Ile with DsaD alone (steady-state kinetics); assay type: biochemical, Streptomyces scopuliridis; details: other: DsaD alone; pH 8.4
# Method: as §6, §7
# [8] = lower substrate loading (10 mM)
molecule,measurement,setting,value
"N[C@@H](Cc1ccc(O)cc1)C(=O)O [Tyr, tyrosine]",deuterium incorporation at Cβ,DsaD/E system,40%
same,deuterium incorporation at Cα,DsaD/E complex [1]; [8],95%
same,deuterium incorporation at Cβ,DsaD/E complex [1]; [8],49%
same,D-incorporation at Cα,DsaD/E complex [2],99%
same,D-incorporation at Cβ,DsaD/E complex [2],27%
"N[C@@H](Cc1ccccc1)C(=O)O [Phe, phenylalanine]",deuterium incorporation at Cβ,DsaD/E system,91%
same,D-incorporation at Cα,DsaD/E complex [2],high Cα deuteration
same,D-incorporation at Cβ,DsaD/E complex [2],67%
[2H][C@](N)(CC(C)C)C(=O)O [L-Leu-2-d],D incorporation at Cα,DsaD [3],95%
same,ee,DsaD [3],> 99 % ee
"CC[C@H](C)[C@H](N)C(=O)O [Ile, isoleucine]",deuteration at Cα,DsaD/E complex [1]; >600 mg scale,95%
same,deuteration at Cβ,DsaD/E complex [1]; >600 mg scale,93%
same,major product of H/D exchange,DsaD/E complex [4],"1:1 mixture of d2-2,3-L-Ile and d2-2,3-L-allo-Ile"
same,kcat of Cα exchange,DsaD [5]; DsaD alone,1.04 ± 0.04 s⁻¹
same,H/D exchange with just DsaD,DsaD [5]; excluding partner protein DsaE,a single H/D exchange event
same,substrate binding to DsaD by UV-vis,DsaD [6],appearance of a new absorbance band at 328 nm
same,change of observed kcat or KM for Cα-deuteration,DsaD/DsaE complex; 150 μM DsaE (50:1 DsaE:DsaD),did not significantly impact
same,change of kcat of Cβ-deuteration,DsaD/DsaE complex; 5 equiv. of DsaE (5:1 DsaE:DsaD) vs one equivalent,did not significantly change
same,decrease in observed KM of Cβ-deuteration,DsaD/DsaE complex; 5 equiv. vs one equivalent of DsaE,11 fold
same,increase in kcat of Cβ-deuteration,DsaD/DsaE complex; 50 equiv. of DsaE (50:1 DsaE:DsaD),~4 fold
same,kcat of Cβ-deuteration,"DsaD/DsaE complex; one equivalent of DsaE, 3 μM DsaD, D2O pD 8.4",0.07 ± 0.007 s⁻¹
same,kcat of Cα-deuteration,DsaD/DsaE complex; with DsaE bound,0.75 ± 0.01 s⁻¹
B1,Km,[7],0.7 ± 0.1 mM
